From paper PMC5026118 (Journal of pharmaceutical sciences, 2016)

Test: Aqueous solubility determination at room temperature
Type: physicochemical
Conditions: water; for log Sw (mg/ml) / Sw (log) Experimental: aqueous solubility of the hydrate, room temperature; for Sw (log) Experimental: value in brackets

| SMILES | log Sw (mg/ml) [log mg/ml] | Sw (log) Experimental [log mg/ml] | solubility thermodynamic at 48 h (thermodynamic from solid) [mg/mL] |
| --- | --- | --- | --- |
| Sc1ncnc2nc[nH]c12 [Mercaptopurine, mercaptopurine monohydrate] | −0.93 | −0.93 | 0.12 |
| O=c1c(O)c(-c2cc(O)c(O)c(O)c2)oc2cc(O)cc(O)c12 [Myricetin, Myricetin (MYR) monohydrate] | −3.19 | −3.19 |  |
